The test has as its target T1, mouse c-fms (Mus musculus, UniProt P09581).
T1 construct: Macrophage-like cell line BAC-1.2F5 which expresses c-fms as a M-CSF receptor on cell membranes; endogenous in cells; host or cells: BAC-1.2F5 mouse macrophage-like cell line
T1 sequence (P09581 20-977): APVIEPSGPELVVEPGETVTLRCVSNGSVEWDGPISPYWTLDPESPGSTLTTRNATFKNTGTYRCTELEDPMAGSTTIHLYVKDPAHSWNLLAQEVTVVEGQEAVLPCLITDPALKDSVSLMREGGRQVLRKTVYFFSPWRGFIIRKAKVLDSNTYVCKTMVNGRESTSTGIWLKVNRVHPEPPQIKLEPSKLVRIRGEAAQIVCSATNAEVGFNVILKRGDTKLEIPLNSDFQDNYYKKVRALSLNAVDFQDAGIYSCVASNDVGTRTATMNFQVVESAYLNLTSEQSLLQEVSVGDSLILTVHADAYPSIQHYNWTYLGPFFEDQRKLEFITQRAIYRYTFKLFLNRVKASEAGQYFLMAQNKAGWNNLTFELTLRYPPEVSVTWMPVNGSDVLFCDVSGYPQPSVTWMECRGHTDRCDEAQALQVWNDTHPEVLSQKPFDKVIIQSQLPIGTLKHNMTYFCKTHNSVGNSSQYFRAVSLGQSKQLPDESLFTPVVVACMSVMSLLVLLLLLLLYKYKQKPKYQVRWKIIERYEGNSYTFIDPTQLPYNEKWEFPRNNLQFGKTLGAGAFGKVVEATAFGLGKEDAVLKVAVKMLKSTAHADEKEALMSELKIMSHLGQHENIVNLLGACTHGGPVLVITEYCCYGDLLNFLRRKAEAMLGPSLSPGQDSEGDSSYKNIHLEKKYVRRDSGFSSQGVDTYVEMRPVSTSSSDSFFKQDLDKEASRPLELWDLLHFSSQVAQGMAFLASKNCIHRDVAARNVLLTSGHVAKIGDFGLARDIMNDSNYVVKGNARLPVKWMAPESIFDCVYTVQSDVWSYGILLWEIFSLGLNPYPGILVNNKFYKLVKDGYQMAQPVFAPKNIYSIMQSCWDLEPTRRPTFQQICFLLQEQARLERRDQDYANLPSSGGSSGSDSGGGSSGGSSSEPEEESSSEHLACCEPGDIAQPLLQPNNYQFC
Kind of test: Inhibition of c-fms autophosphorylation in macrophage-like cell line BAC-1.2F5 by M-CSF stimulation (ELISA). The note with it: BAC-1.2F5 cells, human recombinant M-CSF 50 ng/ml, read-out: c-fms autophosphorylation 50% inhibitory concentration (IC50). In kind it is cell-based. On the procedure: Macrophage-like cell line BAC-1.2F5 which expresses c-fms as a M-CSF receptor on cell membranes (CLAUDIA M. et al., J. Cell. Physiol., 130, 420-427 (1987), “Isolation and Characterization of a Cloned Growth Factor Dependent Macrophage Cell Line, BAC1.2F5”) was cultured at 37° C. in a DMEM medium containing L-cell supernatant and 10% fetal calf serum (GIBCO BRL) in a 5% CO2 incubator until about 50 to 70% confluent. The harvested cells were inoculated into wells, each containing the same medium, in a collagen type I coat 96-well flat-bottom plate in an amount of 5.0×10^4 per well, and cultured at 37° C. for 12 hr. Thereafter, the medium was replaced with a DMEM medium containing a 0.1% fetal calf serum and cultured for 12 hr. Thereafter, a test compound dissolved in dimethyl sulfoxide was added to each well, and cells were incubated at 37° C. for one hr. Human recombinant M-CSF was added to a final concentration of 50 ng/ml, and cells were stimulated at 37° C. for 6 min. After the medium was removed, 50 μl of a solubilization buffer (20 mM HEPES (pH 7.4), 150 mM NaCl, 0.2% Triton X-100, 10% glycerol, 5 mM sodium orthovanadylate, 5 mM disodium ethylenediaminetetraacetate, and 2 mM Na4P2O7) was added thereto. The mixture was shaken at 4° C. for 2 hr to prepare a cell extract as an assay sample which was then used for an ELISA assay.
The plate for the ELISA assay was prepared as follows. Phosphate buffered saline (50 μl, pH 7.4) containing 5 μg/ml of anti-phospho-tyrosine antibody (PY20; Transduction Laboratories) was added to a microplate for ELISA (Maxisorp; purchased from NUNC), followed by standing at 4° C. overnight to be immobilized on the wells. Thereafter, each well was washed twice with 200 μl of a Ca- and Mg-free phosphate buffer containing 0.1% Tween-20 (hereinafter referred to as “PBS-T”), and 200 μl of a blocking solution (Dainippon Pharmaceutical Co. Ltd.: BlockAce) was added to each well, and the wells were then allowed to stand at room temperature for 2 hr for blocking.
Separately, phosphate buffered saline (50 μl, pH 7.4) containing 5 μg/ml of anti-phospho-tyrosine antibody (PY20; Transduction Laboratories) was added to a microplate for ELISA (Maxisorp; purchased from NUNC), followed by standing at 4° C. overnight to form a solid phase on the wells. After washing of the plate, 300 μl of a blocking solution was added, followed by standing at room temperature for 2 hr to perform blocking. After washing, the whole quantity of the cell extract was transferred to the wells, and the plate was then allowed to stand at 4° C. overnight. After washing, anti-c-fms antiserum (Upstate Biotechnology, Inc.) was allowed to react at room temperature for one hr, and, after washing, a peroxidase-labeled anti-rabbit Ig antibody (Amersham) was allowed to react at room temperature for one hr. After washing, a chromophoric substrate for peroxidase (Sumitomo Bakelite Co., Ltd.) was added thereto to initiate a reaction. After a suitable level of color development, a reaction termination solution was added to stop the reaction, and the absorbance at 450 nm was measured with a microplate reader. The c-fms phosphorylation activity for each well was determined by presuming the absorbance without the addition of the test compound and with the addition of M-CSF to be 100% c-fms phosphorylation activity and the absorbance without the addition of the test compound and M-CSF to be 0% c-fms phosphorylation activity. The concentration of the test compound was varied on several levels, the c-fms phosphorylation inhibitory rate was determined for each case, and the concentration of the test compound necessary for inhibiting 50% of c-fms phosphorylation (IC50) was calculated.

This is an account of results in patent publication US7598258B2, “Quinoline derivatives and quinazoline derivatives inhibiting autophosphorylation of macrophage colony stimulating factor receptor” (Kirin Beer Kabushiki Kaisha, priority 2002, dated 2009).

Each structure is given as a SMILES string.

Regarding `COc1cc2nccc(Oc3ccc(NC(=O)N[C@H](C)c4ccc(F)cc4)c(C(F)(F)F)c3)c2cc1OC` [Example 21, N-[4-[(6,7-Dimethoxy-4-quinolyl)oxy]-2-(trifluoromethyl)phenyl]-N′-[(1R)-1-(4-fluorophenyl)ethyl]urea], the IC50 is 9.8 nM.
The same measure for `COc1cc2nccc(Oc3ccc(NC(=O)NC(C)c4nc(C)cs4)cc3F)c2cc1OC` (stereo not drawn) [Example 89, N-{4-[(6,7-Dimethoxy-4-quinolyl)oxy]-3-fluorophenyl}-N′-[1-(4-methyl-1,3-thiazol-2-yl)ethyl]urea]: 3.1 nM; for `COc1cc2nccc(Oc3ccc(NC(=O)N[C@H](C)c4ccc(F)cc4)c(Cl)c3)c2cc1OC` [Example 6, N-{2-Chloro-4-[(6,7-dimethoxy-4-quinolyl)oxy]phenyl}-N′-[(1R)-1-(4-fluorophenyl)ethyl]urea]: 6 nM.
The same measure for `COc1cc(Oc2ccnc3cc(OC)c(OC)cc23)ccc1NC(=O)NC(C)c1nccs1` (stereo not drawn) [Example 74, N-{4-[(6,7-Dimethoxy-4-quinolyl)oxy]-2-methoxyphenyl}-N′-[1-(1,3-thiazol-2-yl)ethyl]urea]: 5 nM; for `COc1cc2nccc(Oc3ccc(NC(=O)N[C@H](C)c4ccc(F)cc4)c(F)c3)c2cc1OC` [Example 30, N-{4-[(6,7-Dimethoxy-4-quinolyl)oxy]-2-fluorophenyl}-N′-[(1R)-1-(4-fluorophenyl)ethyl]urea]: 3.1 nM.
With `COc1cc2nccc(Oc3ccc(NC(=O)N[C@H](C)c4ccc(F)cc4)cc3F)c2cc1OC` [Example 33, N-{4-[(6,7-Dimethoxy-4-quinolyl)oxy]-3-fluorophenyl}-N′-[(1R)-1-(4-fluorophenyl)ethyl]urea] the figure was 6.5 nM; with `COc1cc2nccc(Oc3ccc(NC(=O)N[C@@H](C)c4ccc(F)cc4)cc3F)c2cc1OC` [Example 32, N-{4-[(6,7-Dimethoxy-4-quinolyl)oxy]-3-fluorophenyl}-N′-[(1S)-1-(4-fluorophenyl)ethyl]urea], 3.5 nM; with `COc1cc2nccc(Oc3ccc(NC(=O)NC(C)c4ncc(C)s4)c(C(F)(F)F)c3)c2cc1OC` (stereo not drawn) [Example 104, N-[4-[(6,7-Dimethoxy-4-quinolyl)oxy]-2-(trifluoromethyl)phenyl]-N′-[1-(5-methyl-1,3-thiazol-2-yl)ethyl]urea], 22 nM.
Turning to `COc1cc(Oc2ccnc3cc(OC)c(OC)cc23)ccc1NC(=O)NC(C)c1ncc(C)s1` (stereo not drawn) [Example 105, N-{4-[(6,7-Dimethoxy-4-quinolyl)oxy]-2-methoxyphenyl}-N′-[1-(5-methyl-1,3-thiazol-2-yl)ethyl]urea], the IC50 was 12.7 nM.
Regarding `COc1cc2nccc(Oc3ccc(NC(=O)N[C@H](C)c4nccs4)cc3)c2cc1OC` [Example 79, N-{4-[(6,7-Dimethoxy-4-quinolyl)oxy]phenyl}-N′-[(1R)-1-(1,3-thiazol-2-yl)ethyl]urea], the IC50 was 6.9 nM.
Regarding `COc1cc2nccc(Oc3ccc(NC(=O)NC(C)c4ncc(C)s4)c(C)c3)c2cc1OC` (stereo not drawn) [Example 103, N-{4-[(6,7-Dimethoxy-4-quinolyl)oxy]-2-methylphenyl}-N′-[1-(5-methyl-1,3-thiazol-2-yl)ethyl]urea], the IC50 came to 69.6 nM.
With `COc1cc2nccc(Oc3ccc(NC(=O)NC(C)c4ccc(F)cc4)c(F)c3)c2cc1OC` (stereo not drawn) [Example 28, N-{4-[(6,7-Dimethoxy-4-quinolyl)oxy]-2-fluorophenyl}-N′-[1-(4-fluorophenyl)ethyl]urea] the figure was 6.5 nM; with `COc1cc2nccc(Oc3ccc(NC(=O)NC(C)c4nccs4)cc3)c2cc1OC` (stereo not drawn) [Example 77, N-{4-[(6,7-Dimethoxy-4-quinolyl)oxy]phenyl}-N′-[1-(1,3-thiazol-2-yl)ethyl]urea], 4.7 nM.
`COc1cc2nccc(Oc3ccc(NC(=O)NC(C)c4ncc(C)s4)c(F)c3)c2cc1OC` (stereo not drawn) [Example 101, N-{4-[(6,7-Dimethoxy-4-quinolyl)oxy]-2-fluorophenyl}-N′-[1-(5-methyl-1,3-thiazol-2-yl)ethyl]urea]: the IC50 amounted to 20.1 nM.
The same measure for `COc1cc2nccc(Oc3ccc(NC(=O)NC(C)c4nccs4)cc3OC)c2cc1OC` (stereo not drawn) [Example 80, N-{4-[(6,7-Dimethoxy-4-quinolyl)oxy]-3-methoxyphenyl}-N′-[1-(1,3-thiazol-2-yl)ethyl]urea]: 6.2 nM; for `COc1cc2nccc(Oc3cc(C)c(NC(=O)N[C@@H](C)c4nccs4)cc3C)c2cc1OC` [Example 86, N-{4-[(6,7-Dimethoxy-4-quinolyl)oxy]-2,5-dimethylphenyl}-N′-[(1S)-1-(1,3-thiazol-2-yl)ethyl]urea]: 12.5 nM.
The same measure for `COc1cc2nccc(Oc3ccc(NC(=O)N[C@@H](C)c4ccc(Br)cc4)cc3)c2cc1OC` [Example 34, N-[(1S)-1-(4-Bromophenyl)ethyl]-N′-{4-[(6,7-dimethoxy-4-quinolyl)oxy]phenyl}urea]: 6.3 nM; for `COc1cc2nccc(Oc3ccc(NC(=O)N[C@@H](C)c4ccc(F)cc4)c(C(F)(F)F)c3)c2cc1OC` [Example 20, N-[4-[(6,7-Dimethoxy-4-quinolyl)oxy]-2-(trifluoromethyl)phenyl]-N′-[(1S)-1-(4-fluorophenyl)ethyl]urea]: 6.2 nM; for `COc1cc2c(Oc3ccc(NC(=O)NC(C)c4ccc(F)cc4)cc3F)ccnc2cc1OCCCN1CCOCC1` (stereo not drawn) [Example 64, N-(3-Fluoro-4-{[6-methoxy-7-(3-morpholinopropoxy)-4-quinolyl]oxy}phenyl)-N′-[1-(4-fluorophenyl)ethyl]urea]: 9.4 nM.
As to `COc1cc2nccc(Oc3ccc(NC(=O)N[C@H](C)c4cccc(Br)c4)c(C)c3C)c2cc1OC` [Example 62, N-[(1R)-1-(3-Bromophenyl)ethyl]-N′-{4-[(6,7-dimethoxy-4-quinolyl)oxy]-2,3-dimethylphenyl}urea], the IC50 stood at 29.4 nM.
With `COc1cc2nccc(Oc3cc(C)c(NC(=O)NC(C)c4nc(C)cs4)cc3C)c2cc1OC` (stereo not drawn) [Example 93, N-{4-[(6,7-Dimethoxy-4-quinolyl)oxy]-2,5-dimethylphenyl}-N′-[1-(4-methyl-1,3-thiazol-2-yl)ethyl]urea] the figure was 38.6 nM.
